Entries after “also recorded” stand apart in the source; their conditions may differ.
Assays:
Assay type in all cases: biochemical
[1] = target: T1, human pancreatic α-amylase (Homo sapiens, UniProt P04746); test: α-Amylase inhibition assay
T1 sequence (P04746 16-511): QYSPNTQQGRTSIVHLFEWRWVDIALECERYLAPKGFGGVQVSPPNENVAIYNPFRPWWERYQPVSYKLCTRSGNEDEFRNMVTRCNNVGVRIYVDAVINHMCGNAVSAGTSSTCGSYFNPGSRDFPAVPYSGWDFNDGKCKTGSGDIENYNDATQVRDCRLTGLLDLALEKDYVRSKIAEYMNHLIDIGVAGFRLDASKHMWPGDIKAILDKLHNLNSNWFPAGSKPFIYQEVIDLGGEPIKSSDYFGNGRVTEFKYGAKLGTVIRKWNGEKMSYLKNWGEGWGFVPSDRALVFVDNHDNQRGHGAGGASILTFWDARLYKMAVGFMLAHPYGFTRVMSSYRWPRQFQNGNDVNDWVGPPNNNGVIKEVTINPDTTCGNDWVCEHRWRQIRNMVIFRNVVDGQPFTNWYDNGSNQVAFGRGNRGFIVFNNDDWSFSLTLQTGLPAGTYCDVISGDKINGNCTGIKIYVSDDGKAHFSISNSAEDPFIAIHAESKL

α-glucosidase = α-glucosidase (Homo sapiens, UniProt P10253); test: Enzyme kinetic study, α-glucosidase; conditions: for Inhibition mode towards α-glucosidase: Lineweaver-Burk plot
α-amylase = target: T2, α-amylase (Homo sapiens, UniProt P04746); test: Enzyme kinetic study, α-amylase; conditions: for Inhibition mode towards α-amylase: Lineweaver-Burk plot
T2 sequence (P04746 16-511): T1 sequence (P04746 16-511)

[2] = target: human lysosomal acid-α-glucosidase (Homo sapiens, UniProt P10253); test: α-Glucosidase inhibition assay

Row | IC50 [1] [µM] | IC50 [2] [µM] | SMILES | also measured
1 | 135 ± 6.73 |  | Cc1ccc2c(c1)/C(=N/NC(=O)COc1c(C)cccc1C[C@@H]1C[C@H]3C(=O)N(C)[C@@]4(C[C@H](C)CC[C@H]4C(C)C)N3O1)C(=O)N2 [5g, 2-(2-(((1S,2S,2′R,3a′S,5R)-2-isopropyl-5,5′-dimethyl-4′-oxotetrahydro-2′H-spiro[cyclohexane-1,6′-imidazo [1,5-b]isoxazol]-2′-yl)methyl)-6-methylphenoxy)-N'-((Z)-5-methyl-2-oxoindolin-3-ylidene)acetohydrazide] | 
2 | 30.4 ± 1.52 | 65.1 ± 3.11 | Cc1cccc(C[C@@H]2C[C@H]3C(=O)N(C)[C@@]4(C[C@H](C)CC[C@H]4C(C)C)N3O2)c1OCC(=O)N/N=C1\C(=O)Nc2c(Cl)cccc21 [5d, N'-((Z)-7-chloro-2-oxoindolin-3-ylidene)-2-(2-(((1S,2S,2′R,3a′S,5R)-2-isopropyl-5,5′-dimethyl-4′-oxotetrahydro-2′H-spiro[cyclohexane-1,6′-imidazo [1,5-b]isoxazol]-2′-yl)methyl)-6-methylphenoxy)acetohydrazide] | Ki (α-glucosidase): 56.1 µM; Inhibition mode towards α-glucosidase (α-glucosidase): competitive inhibitors; also recorded: compete with the substrate; Ki (α-amylase): 27.5 µM; Inhibition mode towards α-amylase (α-amylase): competitive inhibition; also recorded: competitive inhibitors
3 | 92.4 ± 4.05 | 172 ± 8.44 | Cc1cccc(C[C@@H]2C[C@H]3C(=O)N(C)[C@@]4(C[C@H](C)CC[C@H]4C(C)C)N3O2)c1OCC(=O)N/N=C1\C(=O)Nc2cc(Br)ccc21 [5e, N'-((Z)-6-bromo-2-oxoindolin-3-ylidene)-2-(2-(((1S,2S,2′R,3a′S,5R)-2-isopropyl-5,5′-dimethyl-4′-oxotetrahydro-2′H-spiro[cyclohexane-1,6′-imidazo [1,5-b]isoxazol]-2′-yl)methyl)-6-methylphenoxy)acetohydrazide] | 
4 | 46.6 ± 2.3 | 85.2 ± 4.25 | Cc1cccc(C[C@@H]2C[C@H]3C(=O)N(C)[C@@]4(C[C@H](C)CC[C@H]4C(C)C)N3O2)c1OCC(=O)N/N=C1\C(=O)Nc2c(F)cccc21 [5h, N'-((Z)-7-fluoro-2-oxoindolin-3-ylidene)-2-(2-(((1S,2S,2′R,3a′S,5R)-2-isopropyl-5,5′-dimethyl-4′-oxotetrahydro-2′H-spiro[cyclohexane-1,6′-imidazo [1,5-b]isoxazol]-2′-yl)methyl)-6-methylphenoxy)acetohydrazide] | 
5 | 55.7 ± 2.78 | 107 ± 5.31 | Cc1cccc(C[C@@H]2C[C@H]3C(=O)N(C)[C@@]4(C[C@H](C)CC[C@H]4C(C)C)N3O2)c1OCC(=O)N/N=C1\C(=O)Nc2ccc(F)cc21 [5f, N'-((Z)-5-fluoro-2-oxoindolin-3-ylidene)-2-(2-(((1S,2S,2′R,3a′S,5R)-2-isopropyl-5,5′-dimethyl-4′-oxotetrahydro-2′H-spiro[cyclohexane-1,6′-imidazo [1,5-b]isoxazol]-2′-yl)methyl)-6-methylphenoxy)acetohydrazide] | 

Second part, the compound before the results:

Row | SMILES | IC50 [1] [µM] | IC50 [2] [µM] | also measured
6 | C[C@H]1O[C@H](O[C@H]2[C@H](O)[C@@H](O)[C@@H](O[C@H]3[C@H](O)[C@@H](O)C(O)O[C@@H]3CO)O[C@@H]2CO)[C@H](O)[C@@H](O)[C@@H]1N[C@H]1C=C(CO)[C@@H](O)[C@H](O)[C@H]1O (stereo partly shown) [Acarbose, reference compound] |  |  | Inhibition mode towards α-glucosidase (α-glucosidase): competitive inhibitors; also recorded: compete with the substrate; Inhibition mode towards α-amylase (α-amylase): competitive inhibition; also recorded: competitive inhibitors
7 | COc1cc(C[C@@H]2C[C@H]3C(=O)N(C)[C@@]4(C[C@H](C)CC[C@H]4C(C)C)N3O2)ccc1OCC(=O)N/N=C1\C(=O)Nc2ccc(F)cc21 [5b, N'-((Z)-5-fluoro-2-oxoindolin-3-ylidene)-2-(4-(((1S,2S,2′R,3a′S,5R)-2-isopropyl-5,5′-dimethyl-4′-oxotetrahydro-2′H-spiro[cyclohexane-1,6′-imidazo [1,5-b]isoxazol]-2′-yl)methyl)-2-methoxyphenoxy)acetohydrazide] | 174 ± 8.71 |  | 
8 | COc1cc(C[C@@H]2C[C@H]3C(=O)N(C)[C@@]4(C[C@H](C)CC[C@H]4C(C)C)N3O2)ccc1OCC(=O)N/N=C1\C(=O)Nc2cc(Br)ccc21 [5c, N'-((Z)-6-bromo-2-oxoindolin-3-ylidene)-2-(4-(((1S,2S,2′R,3a′S,5R)-2-isopropyl-5,5′-dimethyl-4′-oxotetrahydro-2′H-spiro[cyclohexane-1,6′-imidazo [1,5-b]isoxazol]-2′-yl)methyl)-2-methoxyphenoxy)acetohydrazide] | 68 ± 3.4 | 152 ± 7.56 | 
9 | COc1cc(C[C@@H]2C[C@H]3C(=O)N(C)[C@@]4(C[C@H](C)CC[C@H]4C(C)C)N3O2)ccc1OCC(=O)N/N=C1\C(=O)Nc2c(Cl)cccc21 [5a, N'-((Z)-7-chloro-2-oxoindolin-3-ylidene)-2-(4-(((1S,2S,2′R,3a′S,5R)-2-isopropyl-5,5′-dimethyl-4′-oxotetrahydro-2′H-spiro[cyclohexane-1,6′-imidazo [1,5-b]isoxazol]-2′-yl)methyl)-2-methoxyphenoxy)acetohydrazide] | 194 ± 9.54 | 209 ± 10.4 | Factor by which α-amylase activity is impaired relative to 5d ([1]; 5a versus 5d): 6.3; Factor by which α-glucosidase activity is impaired relative to 5d ([2]; 5a versus 5d): 3.2

Reference: article PMC10877290 (Heliyon, 2024)
